Test results taken from US20020037864A1, “2'-Propionate clarithromycin dodecyl sulfate and its preparation and pharmaceutical composition containing the same” (priority 2000, published 2002).
Values after ≈ are worked out from the molar mass of the structure shown. Where a name gives a salt, the structure may show the parent alone.

Key:
mice and rat = conditions: orally administrated to mice and rat; cited from earlier work
[1] = tested on: Streptococcus herbarum, Streptococcus haemolyticus, Staphylococcus aureus, Enterococcus faecalis, Staphylococcus epidermidis, Listeria monocytogenes, and ATCC …; assay: Antibacterial activity in vitro comparison assay, agar dilution method (NCCLS); assay type: cell-based; conditions: for MIC50 / MIC90: agar dilution, panel of test strains
Protocol: The primary antibacterial activity in vitro comparison assay between compound (I) (named CES hereafter) and clarithromycin are performed by No. 1 Hospital of Zhejiang Medical University. The agar dilution method, according to the method recognized by NCCLS (“National clinical analysis criterion protocol” (2nd edition), Ye Yingwu and Wang Yusan ed., p562, Southeast University Press), is taken in the following pharmaceutical sensitivity tests against Streptococcus herbarum, Streptococcus haemolyticus, Staphylococcus aureus, Enterococcus faecalis, Staphylococcus epidermidis, Listeria monocytogenes, and ATCC 25923.

[2] = pH value of aqueous mixture (Chinese Pharmacopoeia 2000, Annex VI H); assay type: physicochemical; conditions: 0.4 g added into 10 ml water
Protocol: The pH value of compound (I) of present invention is 5-7 as pH value analyzer (Model PHS-3C, Shanghai leici equipment factory) determined according to the method described in ANNEX VIH (on the measurement of pH value) to Chinese Pharmacopoeia (2000 edition), wherein compound (I) of present invention 0.4 g is added into 10 ml water and stirring extensively.

mice = assay: Maximal tolerance test; assay type: in vivo
Protocol: Acute toxicity animal trial to compound (I) of the present invention is carried out by using 20 KM mice (10 males) weighted 18-22 g. […] Subsequently, the maximal tolerance dose to mice is greater than 8 g/kg as maximal tolerance test determined. […] The mice restored gradually 3 days after administration of compound (I).

[3] = Acute toxicity animal trial, oral administration; assay type: in vivo; conditions: both sexes, mouse, in vivo, po; orally administrated to KM mice
KM mice = assay: Acute toxicity animal trial, oral administration; assay type: in vivo; conditions: mice after administration
[4] = Solubility (physical & chemical property); assay type: physicochemical

Row | Compound | LD50 (mice and rat) [mg/kg] | MIC50 [1] [µg/mL] | MIC90 [1] | pH value [2] | antibacterial activity relative to clarithromycin ([1]; in vitro comparison) | maximal tolerance dose (mice) | LD50 [3] [mg/kg] | death (KM mice) | signs after administration (KM mice) | time to gradual restoration (KM mice) [days] | solubility in acetone, ethanol, methanol and chloroform [4] | solubility in water [4]
1 | CC[C@H]1OC(=O)[C@H](C)[C@@H](O[C@H]2C[C@@](C)(OC)[C@@H](O)[C@H](C)O2)[C@H](C)[C@@H](O[C@@H]2O[C@H](C)C[C@H](N(C)C)[C@H]2O)[C@](C)(OC)C[C@@H](C)C(=O)[C@H](C)[C@@H](O)[C@]1(C)O [clarithromycin] | 2700 to 3500 | 0.25 (≈ 0.334 µM) | ≧128 μg/ml | – | – | – | – | – | – | – | – | –
2 | CCC(=O)OC1C(O[C@@H]2C(C)[C@H](OC3CC(C)(OC)C(O)C(C)O3)[C@@H](C)C(=O)O[C@H](CC)[C@@](C)(O)[C@H](O)C(C)C(=O)[C@H](C)C[C@@]2(C)OC)OC(C)CC1N(C)C (some centres unmarked) [compound (I), 2′-propionate clarithromycin dodecyl sulfate] | – | 0.25 | ≧128 μg/ml | 5-7 | comparable to that of clarithromycin | greater than 8 g/kg | > 7500 | no death was observed | furriery flab, drowsiness, spiritless and reduced movement | 3 | freely soluble | almost insoluble
